Results as given in ChEMBL document CHEMBL4507286 (2021).

Columns and labels:
[1] = target: Serine/threonine-protein kinase PRP4 homolog (Homo sapiens) (UniProt Q13523)
[2] = tested on: Serine/threonine-protein kinase B-raf (Homo sapiens), P15056 [V600E]
[3] = target: Wee1-like protein kinase 2 (Homo sapiens) (UniProt P0C1S8)
[4] = target: Serine/threonine-protein kinase/endoribonuclease IRE1 (Homo sapiens) (UniProt O75460)
[5] = tested on: Tyrosine-protein kinase ABL1 (Homo sapiens), P00519 [E255K]
[6] = target: Serine/threonine-protein kinase PLK1 (Homo sapiens) (UniProt P53350)
[7] = target: Casein kinase II subunit alpha (Homo sapiens) (UniProt P68400)
[8] = target: Serine/threonine-protein kinase SIK2 (Homo sapiens) (UniProt Q9H0K1)
[9] = target: Serine/threonine-protein kinase 17A (Homo sapiens) (UniProt Q9UEE5)
[10] = target: Inhibitor of nuclear factor kappa-B kinase subunit epsilon (Homo sapiens) (UniProt Q14164)
Inhibitor of nuclear factor kappa-B kinase subunit epsilon (Homo sapiens), sequence (Q14164 whole entry): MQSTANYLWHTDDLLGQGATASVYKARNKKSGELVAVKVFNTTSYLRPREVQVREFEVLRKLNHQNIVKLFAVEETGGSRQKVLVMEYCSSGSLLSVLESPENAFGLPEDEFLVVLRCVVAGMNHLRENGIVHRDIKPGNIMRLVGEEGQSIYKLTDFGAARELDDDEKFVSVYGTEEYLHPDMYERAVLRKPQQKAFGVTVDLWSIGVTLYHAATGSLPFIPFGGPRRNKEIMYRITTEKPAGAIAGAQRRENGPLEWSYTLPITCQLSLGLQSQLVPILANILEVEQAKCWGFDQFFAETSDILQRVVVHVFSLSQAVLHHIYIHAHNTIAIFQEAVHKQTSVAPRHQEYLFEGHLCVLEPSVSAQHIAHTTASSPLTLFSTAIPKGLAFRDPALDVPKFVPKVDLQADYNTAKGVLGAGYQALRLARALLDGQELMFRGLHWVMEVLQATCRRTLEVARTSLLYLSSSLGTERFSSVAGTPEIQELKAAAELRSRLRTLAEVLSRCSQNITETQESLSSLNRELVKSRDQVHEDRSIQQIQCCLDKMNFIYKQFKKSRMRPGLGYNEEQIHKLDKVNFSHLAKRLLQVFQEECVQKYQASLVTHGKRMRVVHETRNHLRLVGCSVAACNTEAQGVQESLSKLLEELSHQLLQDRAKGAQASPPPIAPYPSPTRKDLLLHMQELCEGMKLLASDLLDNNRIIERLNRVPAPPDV

[11] = target: Sodium-dependent noradrenaline transporter (Homo sapiens) (UniProt P23975); conditions: Compound concentration 10.0 uM
[12] = target: Phosphatidylinositol 3-kinase C2 domain-containing subunit gamma (Homo sapiens) (UniProt O75747)
[13] = target: Serine/threonine-protein kinase N2 (Homo sapiens) (UniProt Q16513)
[14] = target: Inhibitor of nuclear factor kappa-B kinase subunit alpha (Homo sapiens) (UniProt O15111)
[15] = target: Cyclin-dependent kinase 18 (Homo sapiens) (UniProt Q07002)
[16] = target: Calcium/calmodulin-dependent protein kinase type 1D (Homo sapiens) (UniProt Q8IU85)
[17] = target: Epidermal growth factor receptor (Homo sapiens) (UniProt P00533)
[18] = target: Non-receptor tyrosine-protein kinase TNK1 (Homo sapiens) (UniProt Q13470)
[19] = target: Wee1-like protein kinase (Homo sapiens) (UniProt P30291)
[20] = target: Dual specificity protein kinase CLK3 (Homo sapiens) (UniProt P49761)
[21] = tested on: Tyrosine-protein kinase ABL1 (Homo sapiens), P00519 [Q252H]
[22] = target: Ephrin type-B receptor 6 (Homo sapiens) (UniProt O15197)
[23] = target: Serine/threonine-protein kinase N1 (Homo sapiens) (UniProt Q16512)
[24] = target: Death-associated protein kinase 2 (Homo sapiens) (UniProt Q9UIK4)
[25] = target: Serine/threonine-protein kinase MRCK gamma (Homo sapiens) (UniProt Q6DT37)
[26] = target: Dual specificity tyrosine-phosphorylation-regulated kinase 2 (Homo sapiens) (UniProt Q92630)
Dual specificity tyrosine-phosphorylation-regulated kinase 2 (Homo sapiens), sequence (Q92630 whole entry): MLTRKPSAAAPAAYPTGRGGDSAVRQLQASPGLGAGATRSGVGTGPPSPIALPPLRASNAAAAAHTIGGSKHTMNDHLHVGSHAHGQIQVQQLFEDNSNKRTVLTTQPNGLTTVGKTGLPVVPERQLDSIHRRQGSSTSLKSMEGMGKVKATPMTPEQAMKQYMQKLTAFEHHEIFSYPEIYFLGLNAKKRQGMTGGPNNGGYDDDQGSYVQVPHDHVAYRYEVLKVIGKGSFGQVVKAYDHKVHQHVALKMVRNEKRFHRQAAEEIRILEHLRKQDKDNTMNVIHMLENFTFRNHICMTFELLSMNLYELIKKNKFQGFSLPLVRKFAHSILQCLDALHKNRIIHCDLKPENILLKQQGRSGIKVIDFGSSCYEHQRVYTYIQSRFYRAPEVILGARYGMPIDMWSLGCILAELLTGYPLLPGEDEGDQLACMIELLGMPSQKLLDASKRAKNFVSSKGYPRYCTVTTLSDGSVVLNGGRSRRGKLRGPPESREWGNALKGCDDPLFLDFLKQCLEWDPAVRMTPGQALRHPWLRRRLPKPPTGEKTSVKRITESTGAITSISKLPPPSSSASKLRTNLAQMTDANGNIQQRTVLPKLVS

[27] = target: Casein kinase II subunit alpha' (Homo sapiens) (UniProt P19784)
Casein kinase II subunit alpha' (Homo sapiens), sequence (P19784 whole entry, looked up): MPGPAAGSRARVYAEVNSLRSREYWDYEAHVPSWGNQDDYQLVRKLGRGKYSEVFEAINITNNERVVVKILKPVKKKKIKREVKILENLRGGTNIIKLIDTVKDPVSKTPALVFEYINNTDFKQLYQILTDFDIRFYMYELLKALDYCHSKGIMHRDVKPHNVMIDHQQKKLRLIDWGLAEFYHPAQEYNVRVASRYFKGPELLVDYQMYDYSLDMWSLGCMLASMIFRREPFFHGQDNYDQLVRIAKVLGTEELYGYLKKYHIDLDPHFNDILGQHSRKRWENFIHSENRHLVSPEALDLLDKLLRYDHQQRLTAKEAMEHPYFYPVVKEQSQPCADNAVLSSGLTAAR

[28] = target: Activin receptor type-1B (Homo sapiens) (UniProt P36896)
[29] = tested on: Tyrosine-protein kinase ABL1 (Homo sapiens), P00519 [M351T]
[30] = target: Ribosomal protein S6 kinase alpha-6 (Homo sapiens) (UniProt Q9UK32)
Ribosomal protein S6 kinase alpha-6 (Homo sapiens), sequence (Q9UK32 whole entry): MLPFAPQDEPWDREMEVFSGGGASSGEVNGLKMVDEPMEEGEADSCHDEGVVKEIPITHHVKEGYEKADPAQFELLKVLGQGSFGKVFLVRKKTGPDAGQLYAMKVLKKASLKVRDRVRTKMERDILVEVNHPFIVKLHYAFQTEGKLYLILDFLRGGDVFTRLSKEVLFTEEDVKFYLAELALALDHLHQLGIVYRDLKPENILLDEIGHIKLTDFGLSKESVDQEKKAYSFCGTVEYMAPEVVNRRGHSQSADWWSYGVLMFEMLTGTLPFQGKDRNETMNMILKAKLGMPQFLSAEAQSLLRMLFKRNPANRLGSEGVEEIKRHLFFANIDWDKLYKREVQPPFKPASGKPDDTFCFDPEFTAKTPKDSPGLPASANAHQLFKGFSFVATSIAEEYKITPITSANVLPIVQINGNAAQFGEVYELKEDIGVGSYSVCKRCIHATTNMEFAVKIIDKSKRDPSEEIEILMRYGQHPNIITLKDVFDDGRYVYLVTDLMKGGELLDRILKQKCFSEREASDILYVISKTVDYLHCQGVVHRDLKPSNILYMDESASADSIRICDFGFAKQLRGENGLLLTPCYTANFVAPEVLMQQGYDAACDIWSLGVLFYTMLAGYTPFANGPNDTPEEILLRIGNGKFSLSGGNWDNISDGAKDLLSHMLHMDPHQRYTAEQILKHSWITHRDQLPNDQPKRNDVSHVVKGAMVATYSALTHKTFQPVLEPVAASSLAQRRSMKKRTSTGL

[31] = target: Myosin light chain kinase family member 4 (Homo sapiens) (UniProt Q86YV6)
[32] = target: Ephrin type-B receptor 4 (Homo sapiens) (UniProt P54760)
Ephrin type-B receptor 4 (Homo sapiens), sequence (P54760 whole entry): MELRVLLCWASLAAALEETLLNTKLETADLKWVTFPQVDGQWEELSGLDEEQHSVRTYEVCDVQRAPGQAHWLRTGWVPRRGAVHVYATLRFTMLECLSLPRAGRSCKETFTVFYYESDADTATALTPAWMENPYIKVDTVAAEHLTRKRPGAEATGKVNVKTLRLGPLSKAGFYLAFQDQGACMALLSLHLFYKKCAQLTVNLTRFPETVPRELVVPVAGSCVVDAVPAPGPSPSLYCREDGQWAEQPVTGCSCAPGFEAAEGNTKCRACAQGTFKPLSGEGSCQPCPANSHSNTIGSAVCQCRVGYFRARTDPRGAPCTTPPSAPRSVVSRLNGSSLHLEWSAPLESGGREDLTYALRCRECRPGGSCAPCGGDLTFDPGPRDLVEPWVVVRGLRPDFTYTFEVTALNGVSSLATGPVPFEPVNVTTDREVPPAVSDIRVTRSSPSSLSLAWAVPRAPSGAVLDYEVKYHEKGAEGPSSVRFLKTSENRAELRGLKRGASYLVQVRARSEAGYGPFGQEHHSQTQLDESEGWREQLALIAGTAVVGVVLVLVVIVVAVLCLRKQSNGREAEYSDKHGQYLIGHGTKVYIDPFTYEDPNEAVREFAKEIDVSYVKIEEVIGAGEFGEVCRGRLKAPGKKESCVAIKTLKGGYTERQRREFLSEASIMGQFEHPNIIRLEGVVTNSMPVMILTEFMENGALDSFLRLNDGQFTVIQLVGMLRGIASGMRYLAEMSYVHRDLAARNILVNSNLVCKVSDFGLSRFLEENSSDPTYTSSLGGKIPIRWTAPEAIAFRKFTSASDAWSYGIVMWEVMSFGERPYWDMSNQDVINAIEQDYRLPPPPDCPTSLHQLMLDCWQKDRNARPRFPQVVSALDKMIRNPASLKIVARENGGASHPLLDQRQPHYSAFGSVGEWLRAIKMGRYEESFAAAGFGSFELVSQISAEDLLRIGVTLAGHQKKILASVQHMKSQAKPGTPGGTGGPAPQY

[33] = tested on: Receptor-type tyrosine-protein kinase FLT3 (Homo sapiens), P36888 [D835H]
[34] = target: Tyrosine-protein kinase ABL1 (Homo sapiens) (UniProt P00519)
[35] = target: D(4) dopamine receptor (Homo sapiens) (UniProt P21917); conditions: Compound concentration 10.0 uM
[36] = target: Interleukin-1 receptor-associated kinase 1 (Homo sapiens) (UniProt P51617)
[37] = target: Mitotic checkpoint serine/threonine-protein kinase BUB1 (Homo sapiens) (UniProt O43683)
[38] = target: Macrophage colony-stimulating factor 1 receptor (Homo sapiens) (UniProt P07333)
[39] = target: Protein kinase C delta type (Homo sapiens) (UniProt Q05655)
[40] = target: Calcium/calmodulin-dependent protein kinase type 1 (Homo sapiens) (UniProt Q14012)
[41] = target: Serine/threonine-protein kinase Nek4 (Homo sapiens) (UniProt P51957)
[42] = target: Ribosomal protein S6 kinase alpha-6 (Homo sapiens) (UniProt Q9UK32); remark: listed apart in the source
[43] = target: 3-phosphoinositide-dependent protein kinase 1 (Homo sapiens) (UniProt O15530)
[44] = target: Calcium/calmodulin-dependent protein kinase type II subunit beta (Homo sapiens) (UniProt Q13554)
[45] = target: cGMP-dependent protein kinase 2 (Homo sapiens) (UniProt Q13237)
cGMP-dependent protein kinase 2 (Homo sapiens), sequence (Q13237 whole entry): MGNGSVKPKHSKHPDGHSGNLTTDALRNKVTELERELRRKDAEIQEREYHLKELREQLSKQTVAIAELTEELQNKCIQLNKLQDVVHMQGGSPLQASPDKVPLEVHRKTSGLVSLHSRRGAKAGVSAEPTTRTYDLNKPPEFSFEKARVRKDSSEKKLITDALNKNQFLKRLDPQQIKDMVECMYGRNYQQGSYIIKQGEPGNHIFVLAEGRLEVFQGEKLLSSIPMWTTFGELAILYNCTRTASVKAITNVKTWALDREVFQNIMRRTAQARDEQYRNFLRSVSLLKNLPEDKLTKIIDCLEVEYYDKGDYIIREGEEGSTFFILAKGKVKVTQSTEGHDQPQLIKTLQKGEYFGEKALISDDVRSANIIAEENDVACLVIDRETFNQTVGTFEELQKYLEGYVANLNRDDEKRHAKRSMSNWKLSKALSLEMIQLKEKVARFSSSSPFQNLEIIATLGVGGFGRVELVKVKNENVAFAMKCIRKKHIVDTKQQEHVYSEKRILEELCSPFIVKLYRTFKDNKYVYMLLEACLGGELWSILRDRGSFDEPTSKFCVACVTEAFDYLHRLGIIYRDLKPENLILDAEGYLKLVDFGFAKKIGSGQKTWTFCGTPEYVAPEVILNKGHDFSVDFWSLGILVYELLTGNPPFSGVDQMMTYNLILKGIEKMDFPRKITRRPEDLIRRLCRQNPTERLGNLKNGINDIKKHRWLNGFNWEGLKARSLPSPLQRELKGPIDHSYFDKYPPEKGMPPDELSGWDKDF

[46] = Compound concentration 1000.0 nM
[47] = Compound concentration 100.0 nM

Serine/threonine-protein kinase B-raf (Homo sapiens), P15056 [V600E], sequence (P15056 whole entry V600E): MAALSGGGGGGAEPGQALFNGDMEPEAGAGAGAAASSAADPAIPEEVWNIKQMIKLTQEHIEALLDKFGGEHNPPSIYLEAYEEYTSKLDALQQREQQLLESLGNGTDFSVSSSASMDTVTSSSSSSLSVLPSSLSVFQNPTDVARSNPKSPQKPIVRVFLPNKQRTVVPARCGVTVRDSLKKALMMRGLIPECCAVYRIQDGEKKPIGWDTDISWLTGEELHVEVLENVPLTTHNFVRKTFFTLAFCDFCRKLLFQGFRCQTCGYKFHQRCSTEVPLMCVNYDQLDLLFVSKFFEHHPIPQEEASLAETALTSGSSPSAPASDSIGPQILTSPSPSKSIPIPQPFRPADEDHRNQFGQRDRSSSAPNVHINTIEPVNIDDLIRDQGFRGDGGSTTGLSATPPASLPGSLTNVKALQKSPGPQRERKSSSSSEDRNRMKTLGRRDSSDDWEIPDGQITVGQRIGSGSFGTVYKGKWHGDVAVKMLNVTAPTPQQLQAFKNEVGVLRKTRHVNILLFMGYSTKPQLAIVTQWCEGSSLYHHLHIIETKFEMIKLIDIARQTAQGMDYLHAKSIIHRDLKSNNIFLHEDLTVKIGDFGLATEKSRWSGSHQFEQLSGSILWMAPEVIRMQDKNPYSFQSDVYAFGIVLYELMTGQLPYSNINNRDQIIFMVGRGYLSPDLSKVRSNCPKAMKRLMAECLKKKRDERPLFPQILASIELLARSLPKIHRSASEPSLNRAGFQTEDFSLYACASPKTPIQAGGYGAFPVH

C[C@H](NC(=O)Nc1cc2[nH]ncc2c(CO)n1)c1ccccn1 [ERKi-NC]
inactive: residual activity [1, 46] 100% | residual activity [2, 46] 100% | residual activity [3, 46] 100% | residual activity [4, 46] 100% | residual activity [5, 46] 81.4% | residual activity [6, 46] 92.1% | residual activity [7, 46] 100% | residual activity [8, 46] 94% | residual activity [9, 46] 100% | residual activity [10, 46] 100% | inhibition [11] 25.4% | residual activity [12, 46] 93.1% | residual activity [13, 46] 100% | residual activity [14, 46] 100% | residual activity [15, 46] 100% | residual activity [16, 46] 100% | residual activity [17, 46] 100% | residual activity [18, 46] 87.8% | residual activity [19, 46] 100% | residual activity [20, 46] 100% | residual activity [21, 46] 100% | residual activity [22, 46] 100% | residual activity [23, 46] 93.1% | residual activity [24, 46] 100% | residual activity [25, 46] 100% | residual activity [26, 46] 100% | residual activity [27, 46] 100% | residual activity [28, 46] 76.1% | residual activity [29, 46] 89.8% | residual activity [30, 46] 100% | residual activity [31, 46] 100% | residual activity [32, 46] 100% | residual activity [33, 46] 100% | residual activity [34, 46] 72.8% | inhibition [35] 16.6% | residual activity [36, 46] 100% | residual activity [37, 46] 100% | residual activity [38, 46] 94.8% | residual activity [39, 46] 63.8% | residual activity [40, 46] 100% | residual activity [41, 46] 83.9% | residual activity [42, 46] 82.7% | residual activity [43, 46] 86.3% | residual activity [44, 46] 100% | residual activity [45, 46] 100%

C[C@@H](NC(=O)Nc1cc2[nH]ncc2c(CO)n1)c1ccccc1 [ERKi]
inactive: residual activity [1, 47] 89.7% | residual activity [2, 47] 100% | residual activity [3, 47] 77.6% | residual activity [4, 47] 61.6% | residual activity [5, 47] 83.4% | residual activity [6, 47] 58.4% | residual activity [7, 47] 94% | residual activity [8, 47] 85.7% | residual activity [9, 47] 88% | residual activity [10, 47] 66.7% | inhibition [11] -9.99% | residual activity [12, 47] 68.3% | residual activity [13, 47] 83.4% | residual activity [14, 47] 100% | residual activity [15, 47] 100% | residual activity [16, 47] 83.3% | residual activity [17, 47] 80.6% | residual activity [18, 47] 98.1% | residual activity [19, 47] 98.9% | residual activity [20, 47] 82.2% | residual activity [21, 47] 67.8% | residual activity [22, 47] 75.5% | residual activity [23, 47] 89.3% | residual activity [24, 47] 66.3% | residual activity [25, 47] 98.2% | residual activity [26, 47] 59.3% | residual activity [27, 47] 76% | residual activity [28, 47] 100% | residual activity [29, 47] 100% | residual activity [30, 47] 83.4% | residual activity [31, 47] 99.5% | residual activity [32, 47] 87.6% | residual activity [33, 47] 100% | residual activity [34, 47] 87% | inhibition [35] -1% | residual activity [36, 47] 54.8% | residual activity [37, 47] 96% | residual activity [38, 47] 87.3% | residual activity [39, 47] 94.9% | residual activity [40, 47] 67.1% | residual activity [41, 47] 86.6% | residual activity [42, 47] 96.8% | residual activity [43, 47] 100% | residual activity [44, 47] 75.2% | residual activity [45, 47] 76.1%
